Source: BigSolDB 2.1

O=P1(C(Nc2ccccc2)c2ccccc2)OCC2(CO1)COP(=O)(C(Nc1ccccc1)c1ccccc1)OC2 (centres undefined) showed a solubility (mole fraction) (in 1,2-dichloroethane, 283.35 K) of 0.000119, a solubility (mole fraction) (in 1,2-dichloroethane, 288.25 K) of 0.000127 and a solubility (mole fraction) (in 1,2-dichloroethane, 293.3 K) of 0.00014. It also gave a solubility (mole fraction) (in 1,2-dichloroethane, 297.95 K) of 0.000153, a solubility (mole fraction) (in 1,2-dichloroethane, 303.45 K) of 0.000163 and a solubility (mole fraction) (in 1,2-dichloroethane, 308.35 K) of 0.000176. It also gave a solubility (mole fraction) (in 1,2-dichloroethane, 313.45 K) of 0.00019, a solubility (mole fraction) (in 1,2-dichloroethane, 318.25 K) of 0.000208 and a solubility (mole fraction) (in 1,2-dichloroethane, 323.45 K) of 0.000219. For the same molecule, the solubility (mole fraction) (in 1,2-dichloroethane, 327.95 K) was 0.000231, the solubility (mole fraction) (in 1,2-dichloroethane, 333.35 K) was 0.000249 and the solubility (mole fraction) (in 1,2-dichloroethane, 338.15 K) was 0.000271. It also gave a solubility (mole fraction) (in 1,4-dioxane, 283.15 K) of 7.3e-05, a solubility (mole fraction) (in 1,4-dioxane, 288.35 K) of 8.4e-05 and a solubility (mole fraction) (in 1,4-dioxane, 293.25 K) of 0.0001. For the same molecule, the solubility (mole fraction) (in 1,4-dioxane, 298.35 K) was 0.000121, the solubility (mole fraction) (in 1,4-dioxane, 303.15 K) was 0.000146 and the solubility (mole fraction) (in 1,4-dioxane, 308.25 K) was 0.000176. For the same molecule, the solubility (mole fraction) (in 1,4-dioxane, 313.45 K) was 0.000202, the solubility (mole fraction) (in 1,4-dioxane, 318.65 K) was 0.000248 and the solubility (mole fraction) (in 1,4-dioxane, 323.55 K) was 0.000286. The solubility (mole fraction) (in 1,4-dioxane, 328.25 K) was 0.000332, the solubility (mole fraction) (in 1,4-dioxane, 333.2 K) was 0.000417 and the solubility (mole fraction) (in 1,4-dioxane, 338.3 K) was 0.000479. For the same molecule, the solubility (mole fraction) (in THF, 288.45 K) was 0.00381, the solubility (mole fraction) (in THF, 293.25 K) was 0.00428 and the solubility (mole fraction) (in THF, 298.15 K) was 0.00481. The solubility (mole fraction) (in THF, 303.15 K) was 0.0053, the solubility (mole fraction) (in THF, 308.65 K) was 0.00588 and the solubility (mole fraction) (in THF, 313.45 K) was 0.00645. It also gave a solubility (mole fraction) (in THF, 318.45 K) of 0.00711, a solubility (mole fraction) (in THF, 323.55 K) of 0.00788 and a solubility (mole fraction) (in THF, 328.35 K) of 0.00862. It also gave a solubility (mole fraction) (in THF, 333.25 K) of 0.01, a solubility (mole fraction) (in THF, 338.15 K) of 0.0108 and a solubility (mole fraction) (in acetic acid, 298.25 K) of 0.000115. It also gave a solubility (mole fraction) (in acetic acid, 303.65 K) of 0.000156, a solubility (mole fraction) (in acetic acid, 308.15 K) of 0.000194 and a solubility (mole fraction) (in acetic acid, 313.25 K) of 0.000233. It also gave a solubility (mole fraction) (in acetic acid, 318.25 K) of 0.000288, a solubility (mole fraction) (in acetic acid, 323.15 K) of 0.000326 and a solubility (mole fraction) (in acetic acid, 328.25 K) of 0.000348. The solubility (mole fraction) (in acetic acid, 333.45 K) was 0.000406, the solubility (mole fraction) (in acetic acid, 338.15 K) was 0.000444 and the solubility (mole fraction) (in acetone, 283.35 K) was 9.1e-05. The solubility (mole fraction) (in acetone, 288.25 K) was 0.000101, the solubility (mole fraction) (in acetone, 293.25 K) was 0.00011 and the solubility (mole fraction) (in acetone, 298.3 K) was 0.000123. The solubility (mole fraction) (in acetone, 303.35 K) was 0.000136, the solubility (mole fraction) (in acetone, 308.45 K) was 0.000151 and the solubility (mole fraction) (in acetone, 313.25 K) was 0.000164. For the same molecule, the solubility (mole fraction) (in acetone, 318.55 K) was 0.000183, the solubility (mole fraction) (in acetone, 323.25 K) was 0.000205 and the solubility (mole fraction) (in acetone, 328.35 K) was 0.000221. It also gave a solubility (mole fraction) (in acetonitrile, 288.3 K) of 3.6e-05, a solubility (mole fraction) (in acetonitrile, 293.2 K) of 4.5e-05 and a solubility (mole fraction) (in acetonitrile, 298.25 K) of 5.5e-05. The solubility (mole fraction) (in acetonitrile, 303.15 K) was 6.1e-05, the solubility (mole fraction) (in acetonitrile, 308.25 K) was 7.6e-05 and the solubility (mole fraction) (in acetonitrile, 313.2 K) was 8.7e-05. The solubility (mole fraction) (in acetonitrile, 317.95 K) was 9.8e-05, the solubility (mole fraction) (in acetonitrile, 323.55 K) was 0.000121 and the solubility (mole fraction) (in acetonitrile, 328.45 K) was 0.000146. It also gave a solubility (mole fraction) (in acetonitrile, 333.15 K) of 0.000169, a solubility (mole fraction) (in acetonitrile, 338.25 K) of 0.000194 and a solubility (mole fraction) (in benzene, 283.25 K) of 3.1e-05. The solubility (mole fraction) (in benzene, 288.35 K) was 4.3e-05, the solubility (mole fraction) (in benzene, 293.15 K) was 6.4e-05 and the solubility (mole fraction) (in benzene, 298.45 K) was 8.2e-05. The solubility (mole fraction) (in benzene, 303.35 K) was 9.8e-05, the solubility (mole fraction) (in benzene, 308.45 K) was 0.000123 and the solubility (mole fraction) (in benzene, 313.25 K) was 0.000145. For the same molecule, the solubility (mole fraction) (in benzene, 318.3 K) was 0.000178, the solubility (mole fraction) (in benzene, 323.35 K) was 0.000199 and the solubility (mole fraction) (in benzene, 328.25 K) was 0.000218. It also gave a solubility (mole fraction) (in benzene, 333.15 K) of 0.000239, a solubility (mole fraction) (in benzene, 338.35 K) of 0.000266 and a solubility (mole fraction) (in dichloromethane, 283.25 K) of 0.000164. It also gave a solubility (mole fraction) (in dichloromethane, 288.3 K) of 0.000202, a solubility (mole fraction) (in dichloromethane, 293.35 K) of 0.000268 and a solubility (mole fraction) (in dichloromethane, 298.25 K) of 0.000308. It also gave a solubility (mole fraction) (in dichloromethane, 303.35 K) of 0.000342, a solubility (mole fraction) (in dichloromethane, 308.15 K) of 0.000388 and a solubility (mole fraction) (in dichloromethane, 313.25 K) of 0.000423. It also gave a solubility (mole fraction) (in diethyl ether, 283.35 K) of 5.5e-05, a solubility (mole fraction) (in diethyl ether, 288.15 K) of 8.6e-05 and a solubility (mole fraction) (in diethyl ether, 292.95 K) of 0.000126. For the same molecule, the solubility (mole fraction) (in diethyl ether, 298.65 K) was 0.000213, the solubility (mole fraction) (in diethyl ether, 303.25 K) was 0.000299 and the solubility (mole fraction) (in ethanol, 288.25 K) was 4e-05. It also gave a solubility (mole fraction) (in ethanol, 293.15 K) of 5e-05, a solubility (mole fraction) (in ethanol, 303.25 K) of 7.4e-05 and a solubility (mole fraction) (in ethanol, 308.55 K) of 9e-05. The solubility (mole fraction) (in ethanol, 313.45 K) was 0.000113, the solubility (mole fraction) (in ethanol, 317.85 K) was 0.000141 and the solubility (mole fraction) (in ethanol, 323.25 K) was 0.00017. For the same molecule, the solubility (mole fraction) (in ethanol, 328.25 K) was 0.0002, the solubility (mole fraction) (in ethanol, 333.25 K) was 0.000243 and the solubility (mole fraction) (in ethanol, 338.25 K) was 0.000285. The solubility (mole fraction) (in ethanol, 343.15 K) was 0.00036, the solubility (mole fraction) (in isopropanol, 283.45 K) was 0.000107 and the solubility (mole fraction) (in isopropanol, 287.95 K) was 0.000131. For the same molecule, the solubility (mole fraction) (in isopropanol, 293.45 K) was 0.000156, the solubility (mole fraction) (in isopropanol, 298.15 K) was 0.000176 and the solubility (mole fraction) (in isopropanol, 303.25 K) was 0.000209. For the same molecule, the solubility (mole fraction) (in isopropanol, 308.15 K) was 0.000234, the solubility (mole fraction) (in isopropanol, 313.25 K) was 0.000256 and the solubility (mole fraction) (in isopropanol, 318.15 K) was 0.000289. For the same molecule, the solubility (mole fraction) (in isopropanol, 323.65 K) was 0.000312, the solubility (mole fraction) (in isopropanol, 328.55 K) was 0.000348 and the solubility (mole fraction) (in isopropanol, 333.3 K) was 0.000393. It also gave a solubility (mole fraction) (in isopropanol, 338.5 K) of 0.000414, a solubility (mole fraction) (in toluene, 283.15 K) of 0.000765 and a solubility (mole fraction) (in toluene, 288.25 K) of 0.00117. For the same molecule, the solubility (mole fraction) (in toluene, 293.25 K) was 0.0015, the solubility (mole fraction) (in toluene, 298.45 K) was 0.00199 and the solubility (mole fraction) (in toluene, 303.15 K) was 0.00238. It also gave a solubility (mole fraction) (in toluene, 308.15 K) of 0.00287, a solubility (mole fraction) (in toluene, 313.45 K) of 0.00344 and a solubility (mole fraction) (in toluene, 318.65 K) of 0.00388. It also gave a solubility (mole fraction) (in toluene, 323.25 K) of 0.00449, a solubility (mole fraction) (in toluene, 328.25 K) of 0.00494 and a solubility (mole fraction) (in toluene, 333.25 K) of 0.00542. For the same molecule, the solubility (mole fraction) (in toluene, 338.25 K) was 0.00614.
